Measurements taken from a compilation of properties of binary mixtures (doi:10.1007/s10953-019-00842-w).

Experiment: xn = mol fraction of the nth substance listed
Details: 101 kPa

CC[n+]1ccn(C)c1.O=S(=O)([O-])C(F)(F)F + CC1COC(=O)O1
viscosity [mPa·s]
Details	x1 = 0.0999	x1 = 0.1999	x1 = 0.3005	x1 = 0.3998	x1 = 0.5001	x1 = 0.601	x1 = 0.6987	x1 = 0.8004	x1 = 0.8998	x1 = 1
288.15 K	6.25	8.7	–	–	–	24.4	30.7	39.1	46.9	59.2
293.15 K	–	7.33	9.18	12.2	15.69	20.5	25.6	–	38.8	48.6
298.15 K	4.53	6.2	7.76	10.37	13.37	17.6	21.7	–	–	–
303.15 K	–	5.31	6.65	–	11.43	15.01	–	23.1	27.6	–
308.15 K	3.4	4.57	5.77	7.65	–	12.99	16.02	19.9	23.6	29
313.15 K	3.03	4.01	5.07	6.67	8.69	11.33	13.95	17.2	–	–
318.15 K	2.7	–	–	–	–	9.92	12.22	15.08	–	21.5
323.15 K	2.42	3.13	3.94	5.12	6.8	8.79	–	13.15	–	18.6
328.15 K	2.17	–	–	–	–	–	9.52	11.61	13.62	16.5
333.15 K	2.01	2.52	–	4.07	5.53	6.99	–	–	12.12	14.61
338.15 K	1.84	2.28	2.83	3.65	4.99	–	7.59	–	10.74	13.02
343.15 K	–	2.14	2.6	–	4.51	5.75	6.92	8.33	9.66	11.52
348.15 K	1.611	1.97	2.41	3.14	4.14	5.26	6.33	7.61	8.9	10.29
353.15 K	1.57	1.89	–	2.94	3.9	4.9	5.92	7.17	–	–

CC1COC(=O)O1 (stereo not given) + CC[n+]1ccn(C)c1.O=S(=O)([O-])C(F)(F)F
x2 = 0
Details	viscosity [mPa·s]
288.15 K	3.53
298.15 K	2.5
303.15 K	2.2
308.15 K	1.97
313.15 K	1.79
318.15 K	1.65
323.15 K	1.538
328.15 K	1.451
333.15 K	1.373
338.15 K	1.307
348.15 K	1.201
353.15 K	1.162
